Measured values published in patent US9546156B2, “N-bicyclic aryl,N'-pyrazolyl urea, thiourea, guanidine cyanoguanidine compounds as TrkA kinase inhibitors” (Array BioPharma Inc., priority 2012, dated 2017).

Key:
Assay in all cases: Off-target kinase profiling (KinaseProfiler)
Assay type in all cases: biochemical
Conditions in all cases: 10 μM, ATP near Km
IR = molecular target: T1, IR (Homo sapiens, UniProt P06213)
T1 construct: purchased Millipore, Inc. (KinaseProfiler service)
How it was run: (§1)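 Read-out: residual activity as percent of control, the average of two runs. Conditions: inhibitor at 10 μM; ATP concentration matched to near the Km of the individual kinase.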

IRAK4 = molecular target: T2, IRAK4 (Homo sapiens, UniProt Q9NWZ3)
T2 construct: purchased Millipore, Inc. (KinaseProfiler service)
How it was run: as §1

EphB4 = molecular target: T3, EphB4 (Homo sapiens, UniProt P54760)
T3 construct: purchased Millipore, Inc. (KinaseProfiler service)
How it was run: as §1

PAK6 = molecular target: T4, PAK6 (Homo sapiens, UniProt Q9NQU5)
T4 construct: purchased Millipore, Inc. (KinaseProfiler service)
How it was run: as §1

CK1delta = molecular target: T5, CK1delta (Homo sapiens, UniProt P48730)
T5 construct: purchased Millipore, Inc. (KinaseProfiler service)
How it was run: as §1

IRAK1 = molecular target: T6, IRAK1 (Homo sapiens, UniProt P51617)
T6 construct: purchased Millipore, Inc. (KinaseProfiler service)
How it was run: as §1

DAPK1 = molecular target: T7, DAPK1 (Homo sapiens, UniProt P53355)
T7 construct: purchased Millipore, Inc. (KinaseProfiler service)
How it was run: as §1

MARK2 = molecular target: T8, MARK2 (Homo sapiens, UniProt Q7KZI7)
T8 construct: purchased Millipore, Inc. (KinaseProfiler service)
T8 sequence (Q7KZI7 whole entry): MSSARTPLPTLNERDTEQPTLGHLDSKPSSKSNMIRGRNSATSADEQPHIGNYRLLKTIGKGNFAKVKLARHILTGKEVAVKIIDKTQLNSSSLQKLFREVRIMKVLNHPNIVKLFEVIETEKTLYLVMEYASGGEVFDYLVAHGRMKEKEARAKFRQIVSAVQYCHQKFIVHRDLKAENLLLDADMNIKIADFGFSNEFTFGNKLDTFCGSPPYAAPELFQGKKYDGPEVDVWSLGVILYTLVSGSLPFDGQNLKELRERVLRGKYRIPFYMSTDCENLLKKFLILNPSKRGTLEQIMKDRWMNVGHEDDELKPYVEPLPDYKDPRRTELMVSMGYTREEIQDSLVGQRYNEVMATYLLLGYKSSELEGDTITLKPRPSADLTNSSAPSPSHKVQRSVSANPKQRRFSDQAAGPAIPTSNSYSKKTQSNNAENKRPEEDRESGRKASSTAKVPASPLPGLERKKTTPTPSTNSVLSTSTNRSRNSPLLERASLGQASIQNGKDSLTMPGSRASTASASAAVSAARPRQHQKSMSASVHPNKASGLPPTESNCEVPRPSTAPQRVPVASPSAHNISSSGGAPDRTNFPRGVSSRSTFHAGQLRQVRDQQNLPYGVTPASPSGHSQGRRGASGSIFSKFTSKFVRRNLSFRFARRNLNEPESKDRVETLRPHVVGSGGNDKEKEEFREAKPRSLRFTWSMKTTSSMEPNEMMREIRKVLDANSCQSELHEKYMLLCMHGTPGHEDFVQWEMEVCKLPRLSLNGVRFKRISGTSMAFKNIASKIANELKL
How it was run: as §1

Pim-3 = molecular target: T9, Pim-3 (Homo sapiens, UniProt Q86V86)
T9 construct: purchased Millipore, Inc. (KinaseProfiler service)
How it was run: as §1

CK1_y = tested on: CK1_y
How it was run: as §1

Fes = molecular target: T10, Fes (Homo sapiens, UniProt P07332)
T10 construct: purchased Millipore, Inc. (KinaseProfiler service)
How it was run: as §1

RIPK2 = molecular target: T11, RIPK2 (Homo sapiens, UniProt O43353)
T11 construct: purchased Millipore, Inc. (KinaseProfiler service)
How it was run: as §1

Flt1 = molecular target: T12, Flt1 (Homo sapiens, UniProt P17948)
T12 construct: purchased Millipore, Inc. (KinaseProfiler service)
How it was run: as §1

TLK2 = molecular target: T13, TLK2 (Homo sapiens, UniProt Q86UE8)
T13 construct: purchased Millipore, Inc. (KinaseProfiler service)
How it was run: as §1

Fyn = molecular target: T14, Fyn (Homo sapiens, UniProt P06241)
T14 construct: purchased Millipore, Inc. (KinaseProfiler service)
How it was run: as §1

MINK = molecular target: T15, MINK (Homo sapiens, UniProt Q8N4C8)
T15 construct: purchased Millipore, Inc. (KinaseProfiler service)
How it was run: as §1

DCAMKL2 = molecular target: T16, DCAMKL2 (Homo sapiens, UniProt Q8N568)
T16 construct: purchased Millipore, Inc. (KinaseProfiler service)
How it was run: as §1

BLK_m = molecular target: T17, BLK_m (Mus musculus, UniProt P16277)
T17 construct: purchased Millipore, Inc. (KinaseProfiler service)
How it was run: as §1

PDK1 = molecular target: T18, PDK1 (Homo sapiens, UniProt O15530)
T18 construct: purchased Millipore, Inc. (KinaseProfiler service)
How it was run: as §1

Pim-1 = molecular target: T19, Pim-1 (Homo sapiens, UniProt P11309)
T19 construct: purchased Millipore, Inc. (KinaseProfiler service)
T19 sequence (P11309 whole entry): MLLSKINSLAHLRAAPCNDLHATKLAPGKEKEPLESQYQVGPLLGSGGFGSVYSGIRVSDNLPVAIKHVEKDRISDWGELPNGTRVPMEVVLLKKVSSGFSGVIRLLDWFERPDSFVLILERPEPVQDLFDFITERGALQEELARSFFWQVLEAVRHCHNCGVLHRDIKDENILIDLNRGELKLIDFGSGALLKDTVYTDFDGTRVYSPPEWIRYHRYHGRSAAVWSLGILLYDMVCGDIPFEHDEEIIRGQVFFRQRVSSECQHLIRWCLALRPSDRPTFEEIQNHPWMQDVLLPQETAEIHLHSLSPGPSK
How it was run: as §1

MST2 = molecular target: T20, MST2 (Homo sapiens, UniProt Q13188)
T20 construct: purchased Millipore, Inc. (KinaseProfiler service)
How it was run: as §1

PrKX = molecular target: T21, PrKX (Homo sapiens, UniProt P51817)
T21 construct: purchased Millipore, Inc. (KinaseProfiler service)
How it was run: as §1

SGK3 = molecular target: T22, SGK3 (Homo sapiens, UniProt Q96BR1)
T22 construct: purchased Millipore, Inc. (KinaseProfiler service)
How it was run: as §1

ROCK-II = molecular target: T23, ROCK-II (Homo sapiens, UniProt O75116)
T23 construct: purchased Millipore, Inc. (KinaseProfiler service)
How it was run: as §1

Fgr = molecular target: T24, Fgr (Homo sapiens, UniProt P09769)
T24 construct: purchased Millipore, Inc. (KinaseProfiler service)
How it was run: as §1

EphB3 = molecular target: T25, EphB3 (Homo sapiens, UniProt P54753)
T25 construct: purchased Millipore, Inc. (KinaseProfiler service)
T25 sequence (P54753 34-998): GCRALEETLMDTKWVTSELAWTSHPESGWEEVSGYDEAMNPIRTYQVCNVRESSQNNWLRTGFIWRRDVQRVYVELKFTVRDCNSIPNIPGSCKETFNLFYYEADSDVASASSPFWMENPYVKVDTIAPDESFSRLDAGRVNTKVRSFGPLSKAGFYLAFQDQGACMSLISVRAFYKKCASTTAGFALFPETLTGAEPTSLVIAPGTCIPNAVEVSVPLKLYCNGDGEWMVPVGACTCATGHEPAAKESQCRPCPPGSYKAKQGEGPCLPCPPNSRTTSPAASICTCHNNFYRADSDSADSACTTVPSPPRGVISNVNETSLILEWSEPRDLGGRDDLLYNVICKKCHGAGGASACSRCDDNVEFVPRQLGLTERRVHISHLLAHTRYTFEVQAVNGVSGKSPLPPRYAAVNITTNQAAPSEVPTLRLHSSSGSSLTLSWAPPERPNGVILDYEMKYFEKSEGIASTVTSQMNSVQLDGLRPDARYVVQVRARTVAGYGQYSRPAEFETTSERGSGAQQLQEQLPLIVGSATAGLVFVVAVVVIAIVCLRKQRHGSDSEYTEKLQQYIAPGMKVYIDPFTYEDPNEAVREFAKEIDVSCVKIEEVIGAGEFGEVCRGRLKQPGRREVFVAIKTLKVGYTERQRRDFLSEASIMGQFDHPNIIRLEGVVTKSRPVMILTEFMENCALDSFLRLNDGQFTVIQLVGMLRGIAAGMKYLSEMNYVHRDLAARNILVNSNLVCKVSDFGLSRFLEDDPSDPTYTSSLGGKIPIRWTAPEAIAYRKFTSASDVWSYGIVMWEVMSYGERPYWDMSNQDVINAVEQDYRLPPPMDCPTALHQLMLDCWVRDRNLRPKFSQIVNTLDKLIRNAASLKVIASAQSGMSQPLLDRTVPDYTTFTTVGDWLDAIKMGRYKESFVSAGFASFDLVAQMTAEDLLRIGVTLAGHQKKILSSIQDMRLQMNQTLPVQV
How it was run: as §1

PAK5 = molecular target: T26, PAK5 (Homo sapiens, UniProt Q9P286)
T26 construct: purchased Millipore, Inc. (KinaseProfiler service)
How it was run: as §1

PKCepsilon = molecular target: T27, PKCepsilon (Homo sapiens, UniProt Q02156)
T27 construct: purchased Millipore, Inc. (KinaseProfiler service)
How it was run: as §1

Abl-P = molecular target: T28, Abl-P (Homo sapiens, UniProt P00519)
T28 construct: purchased Millipore, Inc. (KinaseProfiler service)
How it was run: as §1

Plk1 = molecular target: T29, Plk1 (Homo sapiens, UniProt P53350)
T29 construct: purchased Millipore, Inc. (KinaseProfiler service)
How it was run: as §1

PKD2 = molecular target: T30, PKD2 (Homo sapiens, UniProt Q9BZL6)
T30 construct: purchased Millipore, Inc. (KinaseProfiler service)
How it was run: as §1

CK2alpha2 = molecular target: T31, CK2alpha2 (Homo sapiens, UniProt P19784)
T31 construct: purchased Millipore, Inc. (KinaseProfiler service)
T31 sequence (P19784 whole entry): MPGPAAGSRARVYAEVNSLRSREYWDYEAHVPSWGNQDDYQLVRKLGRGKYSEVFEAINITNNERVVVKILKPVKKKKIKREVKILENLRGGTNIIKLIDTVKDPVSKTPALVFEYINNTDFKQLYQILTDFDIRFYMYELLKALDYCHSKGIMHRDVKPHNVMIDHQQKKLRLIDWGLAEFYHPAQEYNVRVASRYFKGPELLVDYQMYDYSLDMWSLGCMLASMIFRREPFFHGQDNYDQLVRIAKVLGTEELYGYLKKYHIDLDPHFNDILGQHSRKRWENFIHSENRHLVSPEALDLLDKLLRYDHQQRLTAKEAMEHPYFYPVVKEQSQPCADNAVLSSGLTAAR
How it was run: as §1

DAPK2 = molecular target: T32, DAPK2 (Homo sapiens, UniProt Q9UIK4)
T32 construct: purchased Millipore, Inc. (KinaseProfiler service)
How it was run: as §1

EphA4 = molecular target: T33, EphA4 (Homo sapiens, UniProt P54764)
T33 construct: purchased Millipore, Inc. (KinaseProfiler service)
How it was run: as §1

MEK1 = molecular target: T34, MEK1 (Homo sapiens, UniProt Q02750)
T34 construct: purchased Millipore, Inc. (KinaseProfiler service)
How it was run: as §1

CAMK4 = molecular target: T35, CAMK4 (Homo sapiens, UniProt Q16566)
T35 construct: purchased Millipore, Inc. (KinaseProfiler service)
How it was run: as §1

PTK6 = molecular target: T36, PTK6 (Homo sapiens, UniProt Q13882)
T36 construct: purchased Millipore, Inc. (KinaseProfiler service)
T36 sequence (Q13882 whole entry): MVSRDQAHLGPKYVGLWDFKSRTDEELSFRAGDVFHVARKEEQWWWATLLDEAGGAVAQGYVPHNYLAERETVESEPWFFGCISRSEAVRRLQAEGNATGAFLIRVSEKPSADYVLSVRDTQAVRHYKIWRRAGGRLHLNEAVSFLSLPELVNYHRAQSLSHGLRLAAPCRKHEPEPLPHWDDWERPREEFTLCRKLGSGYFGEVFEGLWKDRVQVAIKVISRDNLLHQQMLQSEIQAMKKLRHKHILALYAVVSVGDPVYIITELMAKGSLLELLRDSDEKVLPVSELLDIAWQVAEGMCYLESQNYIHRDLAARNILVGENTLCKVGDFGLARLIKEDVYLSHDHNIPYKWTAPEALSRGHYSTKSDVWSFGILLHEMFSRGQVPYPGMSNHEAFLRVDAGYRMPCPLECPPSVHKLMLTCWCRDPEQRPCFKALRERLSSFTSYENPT
How it was run: as §1

MRCKbeta = molecular target: T37, MRCKbeta (Homo sapiens, UniProt Q9Y5S2)
T37 construct: purchased Millipore, Inc. (KinaseProfiler service)
How it was run: as §1

FGFR1 = molecular target: T38, FGFR1 (Homo sapiens, UniProt P11362)
T38 construct: purchased Millipore, Inc. (KinaseProfiler service)
T38 sequence (P11362 22-822): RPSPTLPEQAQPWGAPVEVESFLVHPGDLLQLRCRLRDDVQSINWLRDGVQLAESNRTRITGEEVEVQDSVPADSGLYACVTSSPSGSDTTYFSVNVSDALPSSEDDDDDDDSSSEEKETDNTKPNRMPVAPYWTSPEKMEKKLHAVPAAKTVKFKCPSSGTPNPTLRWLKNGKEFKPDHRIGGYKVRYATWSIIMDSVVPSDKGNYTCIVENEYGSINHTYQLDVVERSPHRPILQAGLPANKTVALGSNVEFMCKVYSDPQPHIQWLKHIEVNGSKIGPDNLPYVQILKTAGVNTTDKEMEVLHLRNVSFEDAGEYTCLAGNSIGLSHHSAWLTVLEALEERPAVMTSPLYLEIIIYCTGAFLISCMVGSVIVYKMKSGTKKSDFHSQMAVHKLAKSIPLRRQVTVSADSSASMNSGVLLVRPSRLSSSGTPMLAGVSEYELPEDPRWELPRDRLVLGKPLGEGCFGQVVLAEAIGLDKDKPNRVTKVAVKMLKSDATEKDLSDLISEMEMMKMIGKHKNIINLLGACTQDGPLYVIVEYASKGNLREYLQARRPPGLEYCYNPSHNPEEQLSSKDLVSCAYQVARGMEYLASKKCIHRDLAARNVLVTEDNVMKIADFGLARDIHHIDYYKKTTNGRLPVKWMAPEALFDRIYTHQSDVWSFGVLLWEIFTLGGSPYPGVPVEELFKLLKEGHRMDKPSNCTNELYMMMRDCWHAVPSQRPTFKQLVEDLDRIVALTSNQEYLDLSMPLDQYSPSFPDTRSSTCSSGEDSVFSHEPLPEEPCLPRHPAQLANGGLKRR
How it was run: as §1

CDK1/cyclinB = molecular target: T39, CDK1/cyclinB (Homo sapiens, UniProt P06493)
T39 construct: purchased Millipore, Inc. (KinaseProfiler service)
How it was run: as §1

KIT = molecular target: T40, KIT (Homo sapiens, UniProt P10721)
T40 construct: purchased Millipore, Inc. (KinaseProfiler service)
How it was run: as §1

EphA1 = molecular target: T41, EphA1 (Homo sapiens, UniProt P21709)
T41 construct: purchased Millipore, Inc. (KinaseProfiler service)
How it was run: as §1

T1 sequence (P06213 28-1382): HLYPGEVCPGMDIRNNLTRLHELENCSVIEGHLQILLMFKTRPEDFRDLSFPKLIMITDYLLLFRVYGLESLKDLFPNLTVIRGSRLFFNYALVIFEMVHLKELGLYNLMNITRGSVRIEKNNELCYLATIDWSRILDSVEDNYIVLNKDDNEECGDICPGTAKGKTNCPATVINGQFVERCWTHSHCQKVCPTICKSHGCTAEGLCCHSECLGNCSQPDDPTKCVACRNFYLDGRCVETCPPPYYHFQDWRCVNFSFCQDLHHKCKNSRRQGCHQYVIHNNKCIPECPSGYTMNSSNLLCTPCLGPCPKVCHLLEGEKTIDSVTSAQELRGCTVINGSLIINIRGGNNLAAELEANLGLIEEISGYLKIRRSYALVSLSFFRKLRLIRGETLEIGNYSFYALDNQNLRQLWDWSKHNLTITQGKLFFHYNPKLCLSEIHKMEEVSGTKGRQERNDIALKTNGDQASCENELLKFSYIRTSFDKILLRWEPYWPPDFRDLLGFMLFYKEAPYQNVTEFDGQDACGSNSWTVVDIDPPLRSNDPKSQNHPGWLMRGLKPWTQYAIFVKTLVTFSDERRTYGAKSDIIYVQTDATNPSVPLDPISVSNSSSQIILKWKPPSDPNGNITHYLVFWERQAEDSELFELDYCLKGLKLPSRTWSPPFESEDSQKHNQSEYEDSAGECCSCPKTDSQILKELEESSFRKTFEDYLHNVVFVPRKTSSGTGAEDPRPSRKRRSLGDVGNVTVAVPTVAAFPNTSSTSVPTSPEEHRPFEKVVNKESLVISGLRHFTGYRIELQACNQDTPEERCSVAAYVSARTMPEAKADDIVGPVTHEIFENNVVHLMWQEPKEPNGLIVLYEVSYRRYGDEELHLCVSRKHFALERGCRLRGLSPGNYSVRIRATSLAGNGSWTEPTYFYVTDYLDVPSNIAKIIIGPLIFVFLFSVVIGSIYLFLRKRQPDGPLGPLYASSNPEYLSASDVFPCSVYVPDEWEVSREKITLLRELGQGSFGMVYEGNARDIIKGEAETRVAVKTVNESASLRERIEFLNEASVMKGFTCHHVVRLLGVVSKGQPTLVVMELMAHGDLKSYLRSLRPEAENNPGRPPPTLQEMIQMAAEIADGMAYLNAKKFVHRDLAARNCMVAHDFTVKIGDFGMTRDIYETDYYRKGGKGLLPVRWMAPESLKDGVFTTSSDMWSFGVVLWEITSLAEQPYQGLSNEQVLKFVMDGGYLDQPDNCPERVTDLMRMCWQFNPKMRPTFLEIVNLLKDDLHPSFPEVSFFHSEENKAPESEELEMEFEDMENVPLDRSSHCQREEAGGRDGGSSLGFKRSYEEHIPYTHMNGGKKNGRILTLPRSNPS

## COCc1ccc2cccc(NC(=O)Nc3c(C)c(-c4cnn(C)c4)nn3-c3ccccc3)c2c1 [Example 16, 1-(1′,4-dimethyl-1-phenyl-1H,1′H-[3,4′-bipyrazol]-5-yl)-3-(7-(methoxymethyl)naphthalen-1-yl)urea]
IR
  Avg POC: 92 POC
IRAK4
  Avg POC: 175.5 POC
EphB4
  Avg POC: 145.5 POC
PAK6
  Avg POC: 125 POC
CK1delta
  Avg POC: 127.5 POC
IRAK1
  Avg POC: 125 POC
DAPK1
  Avg POC: 118 POC
MARK2
  Avg POC: 114 POC
Pim-3
  Avg POC: 113.5 POC
CK1_y
  Avg POC: 105 POC
Fes
  Avg POC: 117.5 POC
RIPK2
  Avg POC: 107 POC
Flt1
  Avg POC: 115.5 POC
TLK2
  Avg POC: 106 POC
Fyn
  Avg POC: 112.5 POC
MINK
  Avg POC: 118.5 POC
DCAMKL2
  Avg POC: 175 POC
BLK_m
  Avg POC: 106.5 POC
PDK1
  Avg POC: 117.5 POC
Pim-1
  Avg POC: 124.5 POC
MST2
  Avg POC: 115 POC
PrKX
  Avg POC: 134 POC
SGK3
  Avg POC: 131.5 POC
ROCK-II
  Avg POC: 105 POC
Fgr
  Avg POC: 116 POC
EphB3
  Avg POC: 102.5 POC
PAK5
  Avg POC: 122.5 POC
PKCepsilon
  Avg POC: 137 POC
Abl-P
  Avg POC: 147 POC
Plk1
  Avg POC: 95 POC
PKD2
  Avg POC: 106 POC
CK2alpha2
  Avg POC: 101 POC
DAPK2
  Avg POC: 105.5 POC
EphA4
  Avg POC: 100.5 POC
MEK1
  Avg POC: 114 POC
CAMK4
  Avg POC: 127 POC
PTK6
  Avg POC: 114.5 POC
MRCKbeta
  Avg POC: 119 POC
FGFR1
  Avg POC: 116 POC
CDK1/cyclinB
  Avg POC: 117.5 POC
KIT
  Avg POC: 93.5 POC
EphA1
  Avg POC: 104.5 POC
